Measurements: publication PMC4721142, “Randomized controlled studies on the efficacy of antiarthritic agents in inhibiting cartilage degeneration and pain associated with progression of osteoarthritis in the rat” (Arthritis Research & Therapy, 2016)
Where two headings read alike, the source gives them in different places.

Assays:
[1] = system: MIA rat model of OA; experiment: MIA trial 1 weight bearing (daily s.c. clonidine 0.1, fluocinolone 0.002, morphine 6 mg/kg); format: in vivo
Procedure: Weight bearing (WB; incapacitance) was measured five times per day, once per week, using a Linton incapacitance meter (Stoelting Co., Wood Dale, IL, USA). Rats were acclimated to the meter before study initiation, and, similarly, immediately before WB, the animals were placed in the meter and allowed to acclimate for 2–5 minutes. Each hind paw was placed on a separate force plate so that the force exerted by each side could be averaged over a 5-second interval, and the mean of three readings was taken for each data point. Right paw force was compared with that on the left side for each group to confirm that animals were displaying incapacitance and/or pain behavior. Differences in force (left minus right) and right paw force as a percentage of the total force exerted by both paws were determined and compared between groups.
Following isoflurane anesthesia, 50 μl (2 mg) of MIA was injected into the synovial space of the left knee. Animals were randomly assigned to groups, and pain behavior was assessed 7, 14, 21, and 28 days following MIA injection and intervention using WB with the Stoelting incapacitance meter (trial 1) or the dRS test (trials 2 and 3). […] Animals received MIA treatment and then saline control or therapeutic. […] Histopathology was performed at each time point and at study termination. All studies were conducted in accordance with the International Association for the Study of Pain Guidelines and were approved by the Algos Therapeutics, Inc. Institutional Animal Care and Use Committee (IACUC) before initiation. Those running the studies were blind to the treatments. See Additional file 1 for further details. […]
dosing were housed three per cage. Animals had free access to food and water and were maintained […]
The animal colony was maintained at approximately 21 °C. All experiments were conducted in accordance with the International Association for the Study of Pain Guidelines.

[2] = system: MIA rat model of OA; experiment: MIA trial 1 histopathology; format: in vivo; conditions: necropsy day 29, n = 3; for Histopathology, cartilage score: 0-5 scale
Procedure: Following functional testing in the first and second MIA trials, femurs were fixed in paraformaldehyde, processed, sectioned, stained with hematoxylin and eosin or Safranin O at Premier Laboratory (Longmont, CO, USA), and analyzed by a veterinary pathologist. For MIA trial 1, sections were evaluated for the percentage area of chondrocyte necrosis and/or proteolytic degeneration using a 5-point scale with 0 = none; 1 being <10 %; 2 = 10–30 %; 3 = 30–60 %; 4 = 60–90 %; and 5 being >90 %. Other characteristics of inflammation, proliferation, and integrity of the synovium, subchondral bone, and articular cartilage were scored as normal, minimal, mild, moderate, marked, or increased or decreased when severity was not graded. MIA trial 2 was measured similarly and then cross-checked according to the methods used for MIA trial 3 (see text below).
The histopathology for the first MIA trial was performed by Premier Laboratories (Dr. Michael Hawes, APS, Pathologist). Treatments were masked during the assessment. Chondrocyte necrosis and proteolytic degeneration of the femurs were scored on a 5 point scale with 0 = None; 1 = <10%; […]
proteoglycan content (safranin O staining), synovial membrane inflammation and proliferation, subchondral bone, and articular cartilage (as indicated in Supplementary methods). Characteristics within these categories were scored as normal, minimal, mild, moderate, marked, or +/- when severity was not graded. […]
Degenerative changes occur by 3-6 weeks post-surgery in the MMT/MCLT model and are of greatest severity on the outer 1/3 of the tibial cartilage. Less severe degenerative changes are observed in the middle and inner 1/3 of the tibial cartilage. Osteophytes progressively increase in size and are ultimately quite large (medial tibia). By 12 months nearly all rats show total cartilage loss. Due to the rapid progression of cartilage degeneration, protective effects of therapeutics are not always apparent in the outer 1/3 of the tibial cartilage, although zonal analysis may reveal effects of treatment in the middle and inner 1/3. Substantial subchondral and epiphyseal bone changes occur in the medial tibia subjacent to the areas of greatest lesion severity. […]
Scores were based on the […]
percentage of area affected within the zone.
Cartilage degeneration in the tibia was scored on a five point scale for each zone, collagen damage across the medial tibial plateau was measured by total width for each grade damage. Cartilage degeneration in the tibia was scored none to severe (numerical values 0-5) for each zone (area defined by micrometer) using the following criteria: […]

[3] = MIA trial 2 clinical observations; format: in vivo, rat; conditions: tacrolimus i.p. daily
[4] = rat, in vivo
Procedure: Using the MMT/MCLT model, a number of the same agents were tested via systemic delivery and
using incapacitance /weight bearing as a measure of pain.

Row | SMILES | Weight bearing, hours after dosing with significant difference ([1]; day 14) | Weight bearing, hours after dosing with significant difference ([1]; day 21, BL baseline) | Histopathology, bone [2] | Histopathology, cartilage score [2] | Clinical observation [3] | Clinical observation [4]
1 | Clc1cccc(Cl)c1N=C1NCCN1 [Clonidine] | 1 h | 1 h | Severe | 4.7 |  | 
2 | CC1(C)O[C@@H]2C[C@H]3[C@@H]4C[C@H](F)C5=CC(=O)C=C[C@]5(C)[C@@]4(F)[C@@H](O)C[C@]3(C)[C@]2(C(=O)CO)O1 [Fluocinolone, Fluocinolone Acetonide] |  | BL^b, 1 | Minimal | 3.0 |  | 
3 | C=CC[C@@H]1/C=C(\C)C[C@H](C)C[C@H](OC)[C@H]2O[C@@](O)(C(=O)C(=O)N3CCCC[C@H]3C(=O)O[C@H](/C(C)=C/[C@@H]3CC[C@@H](O)[C@H](OC)C3)[C@H](C)[C@@H](O)CC1=O)[C@H](C)C[C@@H]2OC [Tacrolimus] |  |  |  |  | blood in the stool | blood in the stool
